In paper PMC11995216, “End-to-End Backbone Cyclization Enhances Passive Permeability of bRo5 Oligomeric Depsipeptides with Nonlinear Size Dependence” (ACS Medicinal Chemistry Letters, 2025):
Values joined by “and” are separate entries in the source; they are usually repeats but may differ in a detail not shown here. Equal entries are not always repeated. Where two headings read alike, the source gives them in different places.

How the values were obtained:
PAMPA [1] = test system: PAMPA
PAMPA [2] = test system: PAMPA; remark: listed apart in the source
PAMPA [3] = settings: Well 5 / [acc]
PAMPA [4] = test system: PAMPA; remark: listed apart in the source
PAMPA [5] = settings: calculated using Supplement Equation 1, UV detection
PAMPA [6] = settings: UV detection
[7] = PAMPA, 500 uM
in vitro = settings: PAMPA
[8] = initial concentration 500 uM, standard curve, UV detection
[9] = initial concentration 500 uM, standard curve, UV detection; remark: listed apart in the source
[10] = calculated using Supplement Equation 1, UV detection
[11] = UV detection

## CCCCC[C@@H]1OC(=O)[C@@H](C)N(C)C(=O)[C@H](CCCCC)OC(=O)[C@@H](C)N(C)C(=O)[C@H](CCCCC)OC(=O)[C@@H](C)N(C)C(=O)[C@H](CCCCC)OC(=O)[C@@H](C)N(C)C(=O)[C@H](CCCCC)OC(=O)[C@@H](C)N(C)C1=O [Compound C1.5]
PAMPA [1]; Papp (x 10^-6 cm/s) – ELSD Detection / [row 2], ELSD Detection
  Papp: 2.93 ×10⁻⁶ cm/s
PAMPA [1]; Papp (x 10^-6 cm/s) – ELSD Detection / [row 3], ELSD Detection
  Papp: 2.62 ×10⁻⁶ cm/s
PAMPA [1]; Papp (x 10^-6 cm/s) – ELSD Detection / [row 4], ELSD Detection
  Papp: 2.78 ×10⁻⁶ cm/s
PAMPA [1]; Papp (x 10^-6 cm/s) – ELSD Detection / [row 5], ELSD Detection
  Papp: 3.09 ×10⁻⁶ cm/s
PAMPA [1]; Papp (x 10^-6 cm/s) – ELSD Detection / [row 6], ELSD Detection
  Papp: 2.8 ×10⁻⁶ cm/s
PAMPA [1]; Papp (x 10^-6 cm/s) – ELSD Detection / [row 7], ELSD Detection
  Papp: 3.15 ×10⁻⁶ cm/s
PAMPA [1]; Papp (x 10^-6 cm/s) – ELSD Detection / [row 8], ELSD Detection
  Papp: 2.83 ×10⁻⁶ cm/s
PAMPA [1]; Papp (x 10^-6 cm/s) – ELSD Detection / [row 9], ELSD Detection
  Papp: 2.67 ×10⁻⁶ cm/s
PAMPA [1]; Papp (x 10^-6 cm/s) – ELSD Detection / [row 10], ELSD Detection
  Papp: 3.08 ×10⁻⁶ cm/s
PAMPA [1]; Papp (x 10^-6 cm/s) – UV Detection / [row 1], UV Detection
  Papp: 3.3 ×10⁻⁶ cm/s
PAMPA [1]; Papp (x 10^-6 cm/s) – UV Detection / [row 2], UV Detection
  Papp: 3.13 ×10⁻⁶ cm/s
PAMPA [1]; Papp (x 10^-6 cm/s) – UV Detection / [row 3], UV Detection
  Papp: 3.08 ×10⁻⁶ cm/s
PAMPA [1]; Papp (x 10^-6 cm/s) – UV Detection / [row 4], UV Detection
  Papp: 2.85 ×10⁻⁶ cm/s
PAMPA [1]; Papp (x 10^-6 cm/s) – UV Detection / [row 5], UV Detection
  Papp: 3.14 ×10⁻⁶ cm/s
PAMPA [1]; Papp (x 10^-6 cm/s) – UV Detection / [row 6], UV Detection
  Papp: 3.54 ×10⁻⁶ cm/s
PAMPA [1]; Papp (x 10^-6 cm/s) – UV Detection / [row 7], UV Detection
  Papp: 3.19 ×10⁻⁶ cm/s
PAMPA [1]; Papp (x 10^-6 cm/s) – UV Detection / [row 8], UV Detection
  Papp: 3.6 ×10⁻⁶ cm/s
PAMPA [1]; Papp (x 10^-6 cm/s) – UV Detection / [row 9], UV Detection
  Papp: 3.64 ×10⁻⁶ cm/s
PAMPA [1]; Papp (x 10^-6 cm/s) – UV Detection / [row 10], UV Detection
  Papp: 3.64 ×10⁻⁶ cm/s
PAMPA [2]; Well 1 / [donor]
  donor concentration after incubation: 379 µM and 372 µM
PAMPA [2]; Well 2 / [donor]
  donor concentration after incubation: 370 µM and 384 µM
PAMPA [2]; Well 3 / [donor]
  donor concentration after incubation: 400 µM and 367 µM
PAMPA [2]; Well 4 / [donor]
  donor concentration after incubation: 389 µM and 372 µM
PAMPA [2]; Well 5 / [donor]
  donor concentration after incubation: 376 µM and 362 µM
PAMPA [3]
  acceptor concentration after incubation: 61.8 µM
PAMPA [4]; Acceptor Concentration (uM) – ELSD Detection / [row 1]
  Acceptor Concentration: 67.5 µM
PAMPA [4]; Acceptor Concentration (uM) – ELSD Detection / [row 2]
  Acceptor Concentration: 63.9 µM
PAMPA [4]; Acceptor Concentration (uM) – ELSD Detection / [row 3]
  Acceptor Concentration: 64.8 µM
PAMPA [4]; Acceptor Concentration (uM) – ELSD Detection / [row 4]
  Acceptor Concentration: 62.3 µM
PAMPA [4]; Acceptor Concentration (uM) – ELSD Detection / [row 5]
  Acceptor Concentration: 65.1 µM
PAMPA [4]; Acceptor Concentration (uM) – ELSD Detection / [row 6]
  Acceptor Concentration: 65 µM
PAMPA [4]; Acceptor Concentration (uM) – ELSD Detection / [row 7]
  Acceptor Concentration: 68.5 µM
PAMPA [4]; Acceptor Concentration (uM) – ELSD Detection / [row 8]
  Acceptor Concentration: 67.7 µM
PAMPA [4]; Acceptor Concentration (uM) – ELSD Detection / [row 9]
  Acceptor Concentration: 61.3 µM
PAMPA [4]; Acceptor Concentration (uM) – ELSD Detection / [row 10]
  Acceptor Concentration: 66.1 µM
PAMPA [4]; Acceptor Concentration (uM) – UV Detection / [row 1]
  Acceptor Concentration: 66.6 µM
PAMPA [4]; Acceptor Concentration (uM) – UV Detection / [row 2]
  Acceptor Concentration: 60.4 µM
PAMPA [4]; Acceptor Concentration (uM) – UV Detection / [row 4]
  Acceptor Concentration: 56.7 µM
PAMPA [4]; Acceptor Concentration (uM) – UV Detection / [row 5]
  Acceptor Concentration: 61.9 µM
PAMPA [4]; Acceptor Concentration (uM) – UV Detection / [row 6]
  Acceptor Concentration: 71.3 µM
PAMPA [4]; Acceptor Concentration (uM) – UV Detection / [row 7]
  Acceptor Concentration: 64.8 µM
PAMPA [4]; Acceptor Concentration (uM) – UV Detection / [row 8]
  Acceptor Concentration: 71.7 µM
PAMPA [4]; Acceptor Concentration (uM) – UV Detection / [row 9]
  Acceptor Concentration: 73.6 µM
PAMPA [4]; Acceptor Concentration (uM) – UV Detection / [row 10]
  Acceptor Concentration: 71.6 µM
PAMPA [5]; Well 1 / %T, Well 1
  %T: 0.44% and 0.46%
PAMPA [5]; Well 2 / %T, Well 2
  %T: 0.42% and 0.43%
PAMPA [5]; Well 3 / %T, Well 3
  %T: 0.42% and 0.47%
PAMPA [5]; Well 4 / %T, Well 4
  %T: 0.39% and 0.47%
PAMPA [5]; Well 5 / %T, Well 5
  %T: 0.42% and 0.47%
PAMPA [6]; Well 2 / %R, Well 2
  % recovery: 86% and 90%
PAMPA [6]; Well 3 / %R, Well 3
  % recovery: 93% and 88%
PAMPA [6]; Well 5 / %R, Well 5
  % recovery: 88% and 87%

## CCCCC[C@H](OC(=O)[C@@H](C)N(C)C(=O)[C@H](CCCCC)OC(=O)[C@@H](C)N(C)C(=O)OC(C)(C)C)C(=O)OCc1ccccc1 [Compound L1.2]
[7]
  Δ % diffusion: ↑5%
PAMPA [1]; Papp (x 10^-6 cm/s) / experiment 1, UV detection
  Papp: 3.2 ×10⁻⁶ cm/s
PAMPA [1]; Papp (x 10^-6 cm/s) / experiment 2, UV detection
  Papp: 3.8 ×10⁻⁶ cm/s
PAMPA [1]; Papp (x 10^-6 cm/s) / experiment 3, UV detection
  Papp: 3.8 ×10⁻⁶ cm/s
PAMPA [1]; Papp (x 10^-6 cm/s) / experiment 4, UV detection
  Papp: 3.7 ×10⁻⁶ cm/s
PAMPA [1]; Papp (x 10^-6 cm/s) / experiment 5, UV detection
  Papp: 3.9 ×10⁻⁶ cm/s
PAMPA [1]; Papp (x 10^-6 cm/s) / experiment 6, UV detection
  Papp: 3.4 ×10⁻⁶ cm/s
PAMPA [1]; Papp (x 10^-6 cm/s) / experiment 7, UV detection
  Papp: 3.9 ×10⁻⁶ cm/s
PAMPA [1]; Papp (x 10^-6 cm/s) / experiment 8, UV detection
  Papp: 3.3 ×10⁻⁶ cm/s
PAMPA [1]; Papp (x 10^-6 cm/s) / experiment 9, UV detection
  Papp: 3.7 ×10⁻⁶ cm/s
PAMPA [1]; Papp (x 10^-6 cm/s) / experiment 10, UV detection
  Papp: 3.6 ×10⁻⁶ cm/s
In vitro; LogPapp
  Papp at 500 uM: 1.82 ×10⁻⁶ cm/s
In vitro; Papp
  Papp at 500 uM: 3.44 ± 0.33 ×10⁻⁶ cm/s
[8]; Well 1 / [donor], Well 1
  donor concentration after incubation: 391 µM and 364 µM
[8]; Well 2 / [donor], Well 2
  donor concentration after incubation: 361 µM and 396 µM
[8]; Well 3 / [donor], Well 3
  donor concentration after incubation: 348 µM and 368 µM
[8]; Well 4 / [donor], Well 4
  donor concentration after incubation: 345 µM and 348 µM
[8]; Well 5 / [donor], Well 5
  donor concentration after incubation: 331 µM and 358 µM
[9]; Well 1 / [acc], Well 1
  acceptor concentration after incubation: 77 µM
[9]; Well 2 / [acc], Well 2
  acceptor concentration after incubation: 81.5 µM
[9]; Well 3 / [acc], Well 3
  acceptor concentration after incubation: 79.5 µM
[9]; Well 4 / [acc], Well 4
  acceptor concentration after incubation: 78.8 µM
[9]; Well 5 / [acc], Well 5
  acceptor concentration after incubation: 81.8 µM
PAMPA [4]; Acceptor Concentration (uM) / experiment 1, UV detection, initial concentration 500 uM
  Acceptor Concentration: 72 µM
PAMPA [4]; Acceptor Concentration (uM) / experiment 2, UV detection, initial concentration 500 uM
  Acceptor Concentration: 80.6 µM
PAMPA [4]; Acceptor Concentration (uM) / experiment 3, UV detection, initial concentration 500 uM
  Acceptor Concentration: 77.4 µM
PAMPA [4]; Acceptor Concentration (uM) / experiment 4, UV detection, initial concentration 500 uM
  Acceptor Concentration: 75.2 µM
PAMPA [4]; Acceptor Concentration (uM) / experiment 5, UV detection, initial concentration 500 uM
  Acceptor Concentration: 77.1 µM
PAMPA [4]; Acceptor Concentration (uM) / experiment 6, UV detection, initial concentration 500 uM
  Acceptor Concentration: 90.3 µM
PAMPA [4]; Acceptor Concentration (uM) / experiment 7, UV detection, initial concentration 500 uM
  Acceptor Concentration: 86.9 µM
PAMPA [4]; Acceptor Concentration (uM) / experiment 8, UV detection, initial concentration 500 uM
  Acceptor Concentration: 80.4 µM
PAMPA [4]; Acceptor Concentration (uM) / experiment 9, UV detection, initial concentration 500 uM
  Acceptor Concentration: 87.3 µM
PAMPA [4]; Acceptor Concentration (uM) / experiment 10, UV detection, initial concentration 500 uM
  Acceptor Concentration: 83.7 µM
[10]; Well 1 / %T, Well 1
  %T: 0.43% and 0.47%
[10]; Well 2 / %T, Well 2
  %T: 0.48% and 0.46%
[10]; Well 3 / %T, Well 3
  %T: 0.48% and 0.47%
[10]; Well 4 / %T, Well 4
  %T: 0.48% and 0.49%
[10]; Well 5 / %T, Well 5
  %T: 0.5% and 0.49%
[11]; Well 1 / %R, Well 1
  % recovery: 93%
[11]; Well 2 / %R, Well 2
  % recovery: 96%
[11]; Well 3 / %R, Well 3
  % recovery: 85% and 90%
[11]; Well 4 / %R, Well 4
  % recovery: 84% and 85%
[11]; Well 5 / %R, Well 5
  % recovery: 82%
